Columns and labels:
[1] = test system: CT-DNA; experiment: UV-visible absorption titration with CT-DNA; format: binding
Protocol: DNA is one of the key target for cancer therapy. The drug molecules bind with the DNA by three major modes (i) electrostatic interactions with the DNA double helix (ii) binding to grooves of DNA (iii) intercalation between the base pairs of DNA.[25] The titration in UV was performed by increasing concentration of DNA from 10–60 μM into a fixed drug concentration (20 μM). The intra-ligand absorption bands around 290–350 nm (π–π* transition) were used in observation of the interaction of DNA and compound 7e (Fig. S3a ^†). […] Ethidium bromide, a nonspecific intercalator, gives a strong fluorescence while intercalating DNA base pairs. This enhanced fluorescence can be quenched by another chemical moiety which can competitively replace EtBr and binds to the same site.[27] […] The original fluorescence intensity of EtBr–DNA complex is rapidly quenched by increasing the concentration of compound 7e (Fig. S3c ^†). […]
(§1) Then the 96 well plate was placed on the shaker for 10 min and subsequently the absorbance was recorded by the ELISA reader at λ = 490 nm. […] The data were expressed as the growth inhibition percentage calculated according to the equation: % growth inhibition = 100 − [(AD × 100)/AB], where AD is the absorbance measured for sample and AB is the absorbance measured for blank wells (cells with a […]
with DNA. The absorbance of the complex was measured after each succeeding addition of […]

[2] = test system: HeLa cells; experiment: Live cell imaging / cellular uptake; format: cell-based, human; settings: 50 μM in buffer, 4 h incubation, fluorescence microscopy
Protocol: Live cell imaging was performed in HeLa cell line. Compound 7e in 50 μM concentration in the buffer, were incubated with HeLa cells for 4 h. […] Significant potency, selectivity and cellular imaging property of compound 7e, mark it as a theranostic agent.
Fig. 2 Fluorescence and bright-field images of live cells: (a) fluorescent image of HeLa cell with compound 7e (50 μM in PBS buffer); incubation time 2 hours (b) bright-field image of HeLa cell with compound 7e (50 μM in PBS buffer); incubation time 2 hours. Scale bar 100 μm.
as §1
After incubating for 4 h at 37 °C, all the cells were washed with PBS buffer (pH 7.4). Then, the fluorescence images were recorded with an Olympus Fluorescence microscope with 480- […]
Interaction of complex (7e ) with DNA was recorded using UV-Visible absorption spectroscopy and ethidium bromide displacement assay by fluorescence spectroscopy. […]
The CT-DNA concentration in buffer were calculated by using the UV absorbance value at 260 nm and from the known molar […]

[3] = Metabolic stability in mouse liver microsomes; format: in vitro ADME; settings: for % Metabolism in 30 min: 0.5 μM, 0.5 mg ml^−1 protein, NADPH, 37 °C; for half-life at 0.5 μM: mouse, liver microsomes
Protocol: (§2) The in vitro metabolic rate of 7g was determined in liver microsomes and the intrinsic clearance (CLintr) was estimated. The study was conducted at 0.5 μM substrate concentration and microsomal protein concentration of 0.5 mg ml^−1. Metabolic stability study in the presence of microsomes and cofactor NADPH was performed at 37 °C, 60 rpm for 30 min time duration. NADPH free control incubation was performed simultaneously for 30 min to understand if there are any non-enzymatic metabolism related issues. […] Intrinsic clearance as given in Table 6, was calculated using eqn (8). ^†

[4] = Metabolic stability in rat liver microsomes; format: in vitro ADME; settings: for % Metabolism in 30 min: 0.5 μM, 0.5 mg ml^−1 protein, NADPH, 37 °C; for half-life at 0.5 μM: rat, liver microsomes
Protocol: as §2

[5] = Metabolic stability in human liver microsomes; format: in vitro ADME; settings: for % Metabolism in 30 min: 0.5 μM, 0.5 mg ml^−1 protein, NADPH, 37 °C; for half-life at 0.5 μM: human, liver microsomes
Protocol: as §2

SMILES: Clc1cc2nc(COc3ccccc3-c3nc4ccccc4s3)c(COc3ccccc3-c3nc4ccccc4s3)nc2cc1Cl [Compound 7e]
- K b, intrinsic DNA binding constant ([1]; UV-visible absorption titration, 7e 20 μM, DNA 10–60 μM): 6900 M⁻¹
- % Hypochromism ([1]; UV-visible titration with CT-DNA): 50%
- fluorescence of drug-treated live cells (cellular uptake) [2]: significant red fluorescence

SMILES: COc1ccc2nc(COc3ccccc3-c3nc4ccccc4s3)c(COc3ccccc3-c3nc4ccccc4s3)nc2c1 [Compound 7g, 2,2'-((((6-methoxyquinoxaline-2,3-diyl)bis(methylene))bis(oxy))bis(2,1-phenylene))bis(benzo[d]thiazole)]
- CLint ([3]; MLM set 1): 13 μl per min per mg protein
- % Metabolism in 30 min ([3]; MLM set 1): 12%
- CLint ([3]; MLM set 2): 28 μl per min per mg protein
- % Metabolism in 30 min ([3]; MLM set 2): 37%
- half-life at 0.5 μM ([3]; MLM set 1): 1.83 h
- half-life at 0.5 μM ([3]; MLM set 2): 0.818 h
- CLint ([4]; RLM set 1): 4 μl per min per mg protein
- % Metabolism in 30 min ([4]; RLM set 1): 12%
- CLint ([4]; RLM set 2): 14 μl per min per mg protein
- % Metabolism in 30 min ([4]; RLM set 2): 19%
- half-life at 0.5 μM ([4]; RLM set 1): 5.85 h
- half-life at 0.5 μM ([4]; RLM set 2): 1.69 h
- CLint ([5]; HLM set 1): 28 μl per min per mg protein
- % Metabolism in 30 min ([5]; HLM set 1): 35%
- CLint ([5]; HLM set 2): 25 μl per min per mg protein
- % Metabolism in 30 min ([5]; HLM set 2): 38%
- half-life at 0.5 μM ([5]; HLM set 1): 0.821 h
- half-life at 0.5 μM ([5]; HLM set 2): 0.932 h

From PMC9061853, “Luminescent bis(benzo[d]thiazolyl)quinoxaline: facile synthesis, nucleic acid and protein BSA interaction, live-cell imaging, biopharmaceutical research and cancer theranostic application” (RSC Advances, 2019)
